Assay results published in patent publication US20180289666A1, “FLAVONOLIGNANS FOR TREATMENT OF AUTOIMMUNE INFLAMMATORY DISEASES” (Macau University of Science and Technology, priority 2017, published 2018).

Legend:
AIA rats [1] = conditions: AIA rats; MTX alone; versus vehicle-treated AIA rats
[2] = test system: key enzymes involved in lipid metabolism in liver; test: Real-time PCR and Western blot of lipid metabolism enzymes in liver of AIA rats; type: in vivo, Sprague-Dawley (SD) rats; conditions: AIA rats liver
Protocol: Total RNA was isolated from the frozen liver of the AIA model using TRIzol® Reagent (Life technology, USA). mRNA was purified by binding to poly(dT) magnetic beads using Dynabeads® mRNA DIRECT™ Kit (Life technology, Norway) and reverse transcribed using SuperScript® III reverse transcriptase (Invitrogen, California, USA) as described by the manufacturer. Quantitative real-time PCR was performed using SYBR Green (Sigma-Aldrich, Louis, USA) on the ViiA™ 7 Real-Time PCR System (Applied Biosystems, FosterCity, USA). Quantitative RT-PCR analysis was performed using SYBR Green reagents and ViiA™ 7 Real-Time PCR System. Gene expression levels were calculated from cycle threshold (Ct) values and normalized with control gene GAPDH.
Liver tissue homogenates of AIA and MCD animal models were lysed in RIPA buffer (50 mM pH 7.4 Tris, 150 mM NaCl, 1% Triton X-100, 1% sodium deoxycholate, 0.1% SDS, sodium orthovanadate, sodium fluoride and EDTA) containing protease inhibitor cocktails (Roche Life Science, USA). Protein concentration was determined using the BCA protein assay kit (BIO-RAD, USA). Equal amounts of total protein were resolved using SDS-PAGE and transferred onto PVDF membranes (Millipore, Darmstadt, Germany). After incubation in a blocking solution containing with 5% (w/v) skim milk (Nestle Carnation, New Zealand) in TBST buffer (10 mM tris-buffered saline and 0.1% Tween20) for 1 h at room temperature and incubated with primary antibodies overnight at 4° C. The membranes were washed three times with 1×TBST solutions and incubated with the appropriate secondary antibodies at room temperature for 45 min, and subsequently visualized with an enhanced chemiluminescence detection kit (SuperSignal™ West Pico Chemiluminescent Substrate, Thermo Scientific, USA). β-actin was used as the loading control for the experimental data analysis.

AIA rats [3] = test: Plasma metabolomics by LC-MS/MS in AIA rats; type: in vivo, Sprague-Dawley (SD) rats
Protocol: The plasma sample (200 μL) was thawed on ice for 5 min prior to sample preparation and was mixed with 200 μL of 10 mM N-ethylmaleimide (NEM) in PBS buffer solution and 1000 μL of methanol containing internal standard (I.S.) Phe-d5 in 10 ng/ml. This mixture was incubated at −20° C. for 20 min, and then centrifuged at 12000 rpm for 10 min at 4° C. The supernatant was completely dried under nitrogen flow (Pressure Blowing Concentrator, Tokyo Rikakika, Tokyo, Japan) and reconstituted with distilled water.
LC-MS/MS analysis was performed on A Waters ACQUITY UPLC coupled with a 4000 Q-TRAP mass spectrometer. Chromatographic separation was carried on a Waters X Bridge™ BEH C18 analytical column (2.5 μm, 3.0×100 mm; Waters, Torrance, Calif.) with a mobile phase composed of 0.1% formic acid water (solvent A) and methanol (solvent B) which was running in a gradient program: 0-3.0 min (0%-1% B); 3.0-10.0 min (1-3% B); 10.0-14.0 min (3-50% B); 14.0-18.0 min (50-95% B); 18.0-22.0 min (95-0% B); followed by a 3-min re-equilibration step. The injection volume was 10 μl at 4° C. and flow rate was 0.6 ml/min. Electrospray (ESI) source were used in both positive and negative ion mode. […]
The normalized data were exported and further processed by PCA and PLS-DA using a multivariate analysis package SIMCA-P software (Umea, Sweden). Model quality was evaluated based on the relevant values of R^2 and Q^2. […]

AIA rats [4] = test: Radiological and histopathological examination of hind paws / ankle joints of AIA rats; type: in vivo, Sprague-Dawley (SD) rats
Protocol: Disease severity and progression were evaluated by measurements of both hind paw volumes with a plethysmometer chamber (Yiyan technology, Jinan, China) and body weight with a 0.1 g precision balance (Sartorius AG, Göttingen, Germany) every two or three days after arthritis induction. For evaluation the arthritic scoring, the lesions of four paws of each rat (i.e., the arthritic signs) were graded by two separate investigators with a semi-quantitative scale: 0 (normal), 4-8 (mild changes), 8-12 (moderate changes), and 12-16 (severe changes) (van Eden W., et. al., J. E. Coligan, Editor. 2001, John Wiley: New York. p. 1-11). Erythrocyte sedimentation rate (ESR) was determined with ICSH (International Council for Standardization in Hematology) selected method with little modifications at day 42. Briefly, 120 μl of blood sample was taken directly and put into 30 μl of 0.109 mol/L sodium citrate, mixed well, and then transferred into a 1.0 mm×100 mm capillary tube (West China Medical University, ChengDu, China). The tubes were held obliquely at an angle of […] and the erythrocyte sedimentation rate was recorded at 15 min. The cytokines levels including IL-1β, TNF-α, IL-17, IL-33, MMP-9, TIMP-1 and PGE2 in serum were measured using commercially available ELISA kits according to the manufacturers instructions. At the end of the experiments, rat knee images were measured (mean of three readings per knee, Meinaite digital calliper, ShangHai, China) using a IVIS Lumina XRMS Series (PerkinElmer, America) (Esser, R. E., et al., Arthritis Rheum, 1995, 38(1): p. 129-38).
For histopathological assessment, arthritic paws were collected on day 42 after X-ray check, fixed with 10% phosphate buffered saline (PBS) buffered formalin, and decalcified for 3 days in formic acid. Sections from paraffin-embedded tissue were stained with hematoxylin and eosin (H&E). The obtained plasma was stored in −70° C. for metabolomic studies. The relative organ weight ratios (such as liver index, spleen index, kidney index, lung index) were calculated by dividing the weight of each organ with the body weight.

AIA rats [5] = test: Assessment of liver abnormality and lipid profile in AIA model; type: in vivo, Sprague-Dawley (SD) rats
Protocol: Serum ALT, AST, ALP, GGT and total bilirubin were measured by automatic biochemical analyzer (Toshiba Corporation, Tokyo, Japan). Lipids profile including TG, TC, HDL-C, LDL-C/vLDL-C and free fatty acids were measured in the serum. After animals were sacrificed, tissues of liver were fixed in 10% formalin solution, cleared in xylene, embedded in paraffin blocks from which 5 micron-thick sections were obtained. Sections were stained with H&E dye and examined for pathological changes under light microscope by a pathologist blind to the specimens.

CN(Cc1cnc2nc(N)nc(N)c2n1)c1ccc(C(=O)N[C@@H](CCC(=O)O)C(=O)O)cc1 [MTX, methotrexate, reference compound]
changes in arthritis score (AIA rats [1]): significantly (p<0.001) ameliorated | changes in paw volume (AIA rats [1]): significantly (p<0.001) ameliorated | expression of aP2 in the liver [2]: reduced | mRNA and/or protein expression of LPL, CYP7A1, and SREBP1 in liver [2]: greatly repressed | overexpression of SREBP1 [2]: not modulated | increased mRNA levels of hepatic lipogenesis genes (SREBP1, LXR, FXR) ([2]; real-time PCR): attenuated | changes of key lipogenic enzyme in both gene and protein levels ([2]; real-time PCR and Western blot): ameliorated changes | metabolic network (plasma metabolites) (AIA rats [3]): effectively repair the metabolic network | cartilage and joint destruction of the arthritic joints (radiographs) (AIA rats [4]; MTX, day 42): ameliorated | infiltration of inflammatory cells, synovial hyperplasia (AIA rats [4]; ankle joint sections, H&E): diminished | histological grade of representative ankle joint sections (AIA rats [4]; day 42, H&E, FIG. 2C (MTX; Silybin 200 mg/kg), vehicle-treated AIA grade 2/3): 0 | histopathological assessment of liver tissue (AIA rats [5]; H&E liver sections): congested portal tract and mild fatty changes with lipid drop lets | dyslipidemia (serum lipid profile) (AIA rats [5]; MTX): successfully improved | ALT serum level (AIA rats [5]; methotrexate alone, 42 days): significant increase | GGT serum level (AIA rats [5]; methotrexate alone, 42 days): significant increase
